Tests used:
[1] = test system: MCP-1; experiment: Real-time RT-PCR of pancreatic chemokine mRNA after hemin; assay type: in vivo, mice; details: pancreas 24 h after one intraperitoneal injection
Description: (§1) FIG. 3: Hemin increases HO-1^+ pancreatic macrophages in association with MCP-1 and MIP-1α induction. (A) Pancreas from CDD-fed mice was triple-stained using antibodies to HO-1 (a), the macrophage marker F4/80 (b), and the granulocyte marker Gr-1 (c). Scale bar in panel d=[…]. (B) Mice were treated intraperitoneally with hemin (H) or vehicle (V) once (H×1) or 3×(H×3, V×3) during a one week period, followed by feeding with CDD or regular chow for 3 d. Pancreata were collected followed by staining and counting F4/80^+ macrophages in 10 randomly selected high power fields (HPF). The mean±SD (3 mice/group) and p-value for the indicated comparisons are shown. (C) Hemin (H) or vehicle (V) were injected intraperitoneally once followed by harvesting of pancreata after 24 h. A non-injected control “C” group was also included. mRNA levels were then estimated from pancreata of 3 mice/group as a ratio of the indicated chemokine to β-actin (mean±SD).
(§2) Real-time reverse transcription (RT)-PCR. Total RNA was isolated from pancreatic tissue using a commercial kit (TEL-TEST; Friendswood, Tex.). First strand cDNA was synthesized using oligo-dT primers and SuperScript II reverse transcriptase (Invitrogen; Carlsbad, Calif.). Real-time quantitative PCR was performed with an ABI Prism 7900 Sequence Detection System (PE Biosystems; Foster City, Calif.) and established primers for MCP-1, MIP-1α, MIP-2, RANTES, and β-actin. Zhong, B., et al., J. Cell Sci. 117:1709-1719; Zhang, Y., McCormick, L. L., Desai, S. R., Wu, C., and Gilliam, A. C. 2002. Murine sclerodermatous graft-versus-host disease, a model for human scleroderma: cutaneous cytokines, chemokines, and immune cell activation. J. Immunol. 168:3088-3098; Walzog, B., Weinmann, P., Jeblonski, F., Scharffetter-Kochanek, K., Bommert, K., and Gaehtgens, P. 1999. A role for beta(2) integrins (CD11/CD18) in the regulation of cytokine20 gene expression of polymorphonuclear neutrophils during the inflammatory response. FASEB J. 13:1855-1865. Primers to β-actin were used as an internal control reference, and the amount of specific cytokine relative to actin transcript was determined and reported as mean±SD.

[2] = test system: MIP-2; experiment: as above; assay type: in vivo, mice; details: pancreas 24 h after one intraperitoneal injection
Description: as §1, §2

[3] = test system: MIP-1α; experiment: as above; assay type: in vivo, mice; details: pancreas 24 h after one intraperitoneal injection
Description: as §1, §2

[4] = test system: RANTES; experiment: as above; assay type: in vivo, mice; details: pancreas 24 h after one intraperitoneal injection
Description: as §1, §2

[5] = test system: HO-1^+ pancreatic macrophages; experiment: Staining of pancreatic macrophages (HO-1, F4/80) after hemin; assay type: in vivo, mice; details: intraperitoneal hemin
Description: FIG. 3: Hemin increases HO-1^+ pancreatic macrophages in association with MCP-1 and MIP-1α induction. (A) Pancreas from CDD-fed mice was triple-stained using antibodies to HO-1 (a), the macrophage marker F4/80 (b), and the granulocyte marker Gr-1 (c). Scale bar in panel d=20 μM. (B) Mice were treated intraperitoneally with hemin (H) or vehicle (V) once (H×1) or 3×(H×3, V×3) during a one week period, followed by feeding with CDD or regular chow for 3 d. Pancreata were collected followed by staining and counting F4/80^+ macrophages in 10 randomly selected high power fields (HPF). The mean±SD (3 mice/group) and p-value for the indicated comparisons are shown. […]
(§3) Animal procedures. […] Immunofluorescence staining was performed as described (29) and images were analyzed using confocal microscopy. Total tissue lysates were prepared by homogenization in Laemmli sample buffer and analyzed by SDS-PAGE followed by transfer to membranes for blotting and protein visualization by enhanced chemiluminescence. Trypsin activity was determined using a fluorimetric assay and the substrate Boc-Gln-Ala-Arg-MCA (Peptides International Inc.; Louisville, Ky.), and comparison to a standard curve generated with purified trypsin as described. […] Lung injury after caerulein administration was assessed as previously described, based on neutrophilic infiltration, pulmonary edema, alveolar distension and collapse. […]

[6] = test system: HO-1; experiment: Double-staining of pancreas for HO-1 and cell markers after hemin and CDD; assay type: in vivo, mice; details: hemin pretreatment, 3 days of CDD
Description: Pancreata of mice pretreated with hemin followed by 3 days of CDD feeding were isolated, sectioned, then double-stained using antibodies to HO-1 (a, d and g) and keratin polypeptide 8 (epithelial marker, b), vimentin (mesenchymal marker, e) or MJ7/18 (endothelial marker, h). Merging of the indicated images is shown in the right panels. Scale bar in panel i=20 μm. HO-1 staining of pancreas from mice treated with vehicle alone (without CDD) afforded background staining (inset of panel a).
as §3, with “procedures. Mice were euthanized by CO2 inhalation then pancreata and lungs were rapidly removed, divided into 3-4 pieces, and blood was collected by intracardiac puncture.” for “procedures.”

[7] = test system: CDD-induced pancreatitis; experiment: Choline deficient diet (CDD)-induced pancreatitis after hemin pretreatment
Description: (D-F) Mice were injected with saline, hemin, or vehicle (8 mice/group)3×(arrows) followed by feeding with CDD for 3 d then harvesting of the pancreata.
Balb/c mice were housed under pathogen-free conditions and utilized in two established models of pancreatitis. […] For the pancreatitis induced by feeding a choline/methionine-deficient diet (CDD), young female mice (15-19 g) were fasted then fed CDD (Harlan Teklad; Madison Wis.) supplemented with 0.5% DL-ethionine (Sigma; St. Louis, Mo.) or normal chow (control group) for 3 d, then switched to normal diet for 1, 2 or 5 d.
Animal procedures. Mice were euthanized by CO2 inhalation then pancreata and lungs were rapidly removed, divided into 3-4 pieces, and blood was collected by intracardiac puncture. Individual lung and pancreas fragments were immediately fixed in 10% formalin, embedded in OCT (Miles; Elkhart, Ind.) or snap-frozen in liquid N2 for subsequent protein, enzyme, and RNA analysis. […] Fixed tissues were sectioned then stained using hematoxylin and eosin (performed by Histo-tec Laboratory; Hayward, Calif.).

[8] = test system: peritoneal cells; experiment: Effect of hemin on peritoneal cell number (cell counting, flow cytometry); assay type: in vivo; details: mice injected during a 7-day period, 3 per group, p 0.06 vs vehicle
Description: The effect of hemin or vehicle on peritoneal cell number was assayed. Mice (3 per group) were injected with vehicle or hemin during a 7-day period. Peritoneal cells were then isolated followed by counting. Cell viability was greater than 98% using trypan blue exclusion. The number of cells that were double positive for Mac-1^+ and F4/80^+ was then determined using flow cytometry. P-values compared the hemin treated versus the vehicle treated groups.

With Hemin the “MCP-1 mRNA (ratio to β-actin)” value [1] was “induction”, the “change in MIP-2 mRNA level” value [2] was “not significant” and the “MIP-1α mRNA (ratio to β-actin)” value [3] was “induction”. For the same substance, the “change in RANTES mRNA level” value [4] was “not significant”, the “HO-1^+ pancreatic macrophages” value [5] was “increases” and the “cell type of pancreatic HO-1 induction” value [6] was “occurs in non-epithelial cells”. The pancreatic injury ([7]; figure title) was “inhibition of pancreatic injury”, the “pancreas histology (edema, necrosis)” value ([7]; hematoxylin and eosin, mice that survived CDD feeding) was “marked pancreas edema (E) and necrosis (N) in the saline (not shown) and vehicle injected mice, as compared with the “hemin” group” and the survival ([7]; hemin 3× then CDD 3 d, 8 mice/group, p<0.03 vs controls (saline+vehicle)) was “survival difference was significant”. The Total cell number [8] was 7.3 ± 2.1 × 10^6.

Source: patent publication US7745402B2, “Method of treating pancreatitis” (Lundbeck Inc., priority 2005, dated 2010)
